# How the values were obtained:
# [1] = tested on: male mice of C57BL/6 line; assay: Test of familiar object recognition in a novel localization (spatial memory); type: in vivo; conditions: for % of time investigating the object in a novel localization / % of time investigating the object in familiar localization: testing 48 hr after training; for effect on memory: doses of 1 mg/kg and 5 mg/kg
# Text: Testing of compounds of general formula 1 on spatial memory in test of novel object recognition. Test of novel object recognition is based on the fact that rats and mice investigate spontaneously a novel object or novel object localization (NL) for longer period of time than the known object or known object localization (KL). The test was tried on rats [A. Ennaceur and J. Delacour, A new one-trial test for neurobiological studies of memory in rats. 1: behavioral data. Behay. Brain Res. 1988, 31, 47-59; J. C. Dodart, C. Mathis and A. Ungerer, Scopolamine-induced deficits in a two-trial object recognition task in mice. NeuroReport 1997, 8, 1173-1178; C. Messier, Object recognition in mice: improvement of memory by glucose. Neurobiol. Learn. Mem. 1997, 67, 172-175; C. Pittenger, Y. Y. Huang, R. F. Paletzki, R. Bourtchouladze, H. Scanlin, S. Vronskaya et al., Reversible inhibition of CREB/ATF transcription factors in region CA1 of the dorsal hippocampus disrupts hippocampus-dependent spatial memory. Neuron 2002, 34, 447-462; A. E. Ryabinin, M. N. Miller and S. Durrant, Effects of acute alcohol administration on object recognition learning in C57BL/6J mice. Pharmacol. Biochem. Behay. 2002, 71, 307-312; F. Sargolini, P. Roullet, A. Oliverio and A. Mele, Effects of intra-accumbens focal administrations of glutamate antagonists on object recognition memory in mice. Behay. Brain Res. 2003, 138, 153-163].
# Test of novel object recognition consists of two tests. The first one is novel object localization test use for examination of spatial memory, and the second one—test of novel object recognition for exploring non spatial memory [D. Gaffan, Amnesia for complex naturalistic scenes and for objects following formix transaction in the Rhesus monkey. Eur. J. Neurosci. 1992, 4, 381-388; B. Kolb, K. Buhrmann, R. McDonald and R. Sutherland, Dissociation of the medial prefrontal, posterior parietal, and posterior temporal cortex, for spatial navigation and recognition memory in the rat. Cereb. Cortex 1994, 6, 664-680; T. Steckler, W. H. I. M. Drinkenburgh, A. Sahgal and J. P. Aggleton, Recognition memory in rats. I. Concepts and classification. Prog. Neurobiol. 1998, 54, 289-311. T. Steckler, W. H. I. M. Drinkenburgh, A. Sahgal and J. P. Aggleton, Recognition memory in rats II. Neuroanatomical substrates. Prog. Neurobiol. 1998, 54, 313-332].
# Methods of Investigation.
# Subjects were male mice of 3-5 month age of C57BL/6 line, weighing 20-24 g. Animals were housed 5 per cage at light mode 12×12 hr with a light part from 8 till 20 o'clock with water and food available. Experimental setup was made of non-transparent white organic glass measuring 48×38×30 cm. As objects of recognition brown glass bottles measuring 2.7 cm diameter and 5.5 cm high were used. The cage and objects of recognition were wiped with 85% alcohol 2-3 min prior placing an animal in the cage. Animals were always placed in the cage centre. 40 Mg of compound of general formula 1 were dissolved in 0.2 ml of DMSO with the following addition of distilled water up to desired concentration. Solutions were prepared just before a trial. All experiments were carried out on two groups of 10 mice each. Animals were injected in dose 1 and 5 mg/kg in volume 0.05 ml on 10 g of animal weight one hour before the trial. The control animals were injected with an equal volume of distilled water.
# Acquaintance with the behavioural cage. At the first test day mice were placed into a research chamber and allowed to acclimate for 20-30 min. After that each animal was placed for 10 minutes into an empty, previously treated with alcohol behavioural chamber for acclimation. Then the animal was placed into the cage and taken back to vivarium.
# Training. Next day the same mice were placed into a behavioural chamber and allowed to explore for 20-30 min; after acclimation animals were injected intragastrically by the solution of tested compound. […]
# [2] = tested on: male mice of C57BL/6 line; assay: Acute toxicity in mice; type: in vivo; conditions: for animals' death: 100 mg/kg
# Procedure: Research of acute toxicity. Acute toxicity of the proposed compounds was determined in male mice of C57BL/6 line. […] Observation time was 14 days.
# [3] = dose 1 mg/kg intragastrically one hour before training
# [4] = dose 5 mg/kg intragastrically one hour before training
Compound,"% of time investigating the object in a novel localization [1, 3] [%]","% of time investigating the object in familiar localization [1, 3] [%]","% of time investigating the object in a novel localization [1, 4] [%]","% of time investigating the object in familiar localization [1, 4] [%]",effect on memory [1],"duration of sedative action ([2]; doses 100 and 50 mg/kg, mice) [h]","onset of sedative action after injection ([2]; doses 100 and 50 mg/kg, mice) [min]","sedative action ([2]; doses 100 and 50 mg/kg, mice)","sedative action ([2]; doses of 1 and 5 mg/kg, mice)","animals' death ([2]; unitary introduction into stomach, 14 days of watching)","animals' death ([2]; mouse, in vivo)"
"Cc1ccc2c(c1)[C@@H]1CN(C)CCC[C@H]1N2Cc1ccccn1.Cl.Cl (relative stereo) [1.2.6(4)HCl, trans-2,9-dimethyl-6-[(pyridin-2-yl)methyl]-1,2,3,4,5,5a,6,10b-octahydroazepino[4,3-b]indole dihydrochloride]",49.11±3.3,41.3±9.7,60.1±9.0,39.9±9.0,stimulating effect on memory,> 24,5 to 10,pronounced sedative action,not observed,do not cause animals' death,
"Cc1ccc2c(c1)c1c(n2CCc2ccc(C)nc2)CCCN(C)C1.Cl.Cl [1.1.5(2)HCl, 2,9-dimethyl-6-[2-(6-methylpyridin-3-yl)ethyl]-1,2,3,4,5,6-hexahydroazepino[4,3-b]indole dihydrochloride]",58.7±9.7,41.3±9.7,58.8±11.1,41.2±11.1,stimulating effect on memory,,,,,,do not cause animals' death
"Cc1ccc2c(c1)c1c(n2CCc2ccncc2)CCCN(C)C1.Cl.Cl [1.1.5(3)HCl, 2,9-dimethyl-6-[2-(pyridin-4-yl)ethyl]-1,2,3,4,5,6-hexahydroazepino[4,3-b]indole dihydrochloride]",55.5±6.2,44.5±6.2,59.9±5.9,40.1±5.9,stimulating effect on memory,,,,,,do not cause animals' death
